What all share (format): cell-based
In test [1] the test system is HT-29 (monolayer culture of a human colon carcinoma). Put plainly: In vitro antitumor activity, HT-29 cell growth (Crystal Violet). The conditions noted are these: HT-29 cells, three days of incubation at 37° C., Crystal Violet staining. The method, then: (§1) The antitumor activities of IB-97224 and IB-97225 have been determined in vitro in cell cultures of mouse leukemia P-388D1, human lung carcinoma A-549, human colon carcinoma HT-29 and human melanoma SK-MEL-28. The procedure was carried out using the methodology described by Bergeron, et al. (1984), and by Schroeder, et al. (1981).
(§2) Biological activity: The antitumor cells employed have been P-388D1 (suspension culture of a lymphoid neoplasm from DBA/2 mouse), A-549 (monolayer culture of a human macrocytic lung carcinoma), HT-29 (monolayer culture of a human colon carcinoma), and SK-MEL-28 (monolayer culture of a human melanoma). P-388D1 cells were seeded into 16 mm wells at 1×10^4 cells per well in 1 ml aliquots of MEM 5FCS containing the indicated concentration of drug. A separate set of cultures without drug was seeded as control of growth to ensure that cells remained in exponential phase of growth. All determinations were carried out duplicated. After three days of incubation at 37° C. in 10% CO2 atmosphere with 98% humidity, the IC50 was calculated by comparing the growth in wells with drug with the growth in control wells without the drug. […] The IC50 was calculated by comparing the growth in wells with drug with the growth in control wells without the drug.

For test [2], the system named is A-549 (monolayer culture of a human macrocytic lung carcinoma). Put plainly: In vitro antitumor activity, A-549 cell growth (Crystal Violet). The conditions noted are these: A-549 cells, three days of incubation at 37° C., Crystal Violet staining. The method, then:
as §1, §2

Test [3] has as its system SK-MEL-28 (monolayer culture of a human melanoma). Put plainly: In vitro antitumor activity, SK-MEL-28 cell growth (Crystal Violet). The conditions noted are these: SK-MEL-28 cells, three days of incubation at 37° C., Crystal Violet staining. The method, then: as §1, §2
In test [4] the test system is P-388D1 (suspension culture of a lymphoid neoplasm from DBA/2 mouse). Put plainly: In vitro antitumor activity, P-388D1 cell growth. The conditions noted are these: P388D1 cells, three days of incubation at 37° C., growth vs control wells without drug. The method, then: as §1, §2

Regarding `CO[C@H]1[C@@H](N(C)C)[C@H](O)C2OC1(C)n1c3ccccc3c3c4c(c5c6ccccc6n2c5c31)C(=O)NC4` (some centres unmarked) [IB-97224, 4′N-methyl-5′-hydroxystaurosporine], the IC50 worked out at 4 nM in test [1], 2 nM in test [2], 4 nM in test [3] and 40 nM in test [4].

`CN[C@H]1[C@H](O)[C@@H]2O[C@](C)([C@H]1OC)n1c3ccccc3c3c4c(c5c6ccccc6n2c5c31)C(=O)NC4` [IB-97225, 5′-hydroxystaurosporine]: the IC50 in test [1] came to 4 nM; in test [2] it was 2 nM; in test [3], 2 nM; in test [4] it was 20 nM.

These data come from patent US6852715B1, “Indolocarbazole alkaloids from a marine actinomycete” (Instituto Biomar S.A., priority 1909, dated 2005).
